From patent EP0084730A1, “Esters of penicillin derivatives with beta-lactamase inhibitors, their preparation and their use” (BEECHAM GROUP PLC, priority 1982, dated 1983)

What was measured:
[1] = Blood levels of benzyl penicillin after oral dosing in mice, determined by antibacterial assay; details: mouse, in vivo, 60 mg/kg
Protocol: […] These compounds were adminstered in 10% dimethylformamide/90% olive oil. The dose was equivalent to approximately 62 mg/kg of benzyl penicillin and 38 mg/kg of the clavulanate.
(§1) An antibacterial assay was used to determine levels of benzyl penicillin in blood samples. A P-lactamase inhibition assay was employed to determine levels of the clavulanate in the samples.

[2] = Blood levels of the clavulanate after oral dosing in mice, determined by β-lactamase inhibition assay; format: in vivo; details: mouse
Source text: These compounds were adminstered in 10% dimethylformamide/90% olive oil. […]
as §1

## CC1(C)S[C@@H]2[C@H](NC(=O)Cc3ccccc3)C(=O)N2[C@H]1C(=O)O [benzyl penicillin]
[1]
  concentration at 0.25 h: 1390 ng/mL
  concentration at 0.5 h: 1050 ng/mL
  concentration at 0.75 h: 1250 ng/mL
  concentration at 1 h: 620 ng/mL
  concentration at 1.5 h: 550 ng/mL
  concentration at 2 h: 320 ng/mL
[1]; 0.25 h
  Blood levels of benzyl penicillin: 1390 ng/mL
[1]; 0.5 h
  Blood levels of benzyl penicillin: 1050 ng/mL
[1]; 0.75 h
  Blood levels of benzyl penicillin: 1250 ng/mL
[1]; 1 h
  Blood levels of benzyl penicillin: 620 ng/mL
[1]; 1.5 h
  Blood levels of benzyl penicillin: 550 ng/mL
[1]; 2 h
  Blood levels of benzyl penicillin: 320 ng/mL

## O=C(O)[C@H]1/C(=C/CO)O[C@@H]2CC(=O)N21 [clavulanic acid]
[2]; blood, mice, clavulanic acid alone at 20 mg/kg, 15' after administration, mean results from several experiments, read-out: Blood levels of clavulanic acid
  concentration at 0.25 h: 5900 ng/mL
[2]; blood, mice, clavulanic acid alone at 20 mg/kg, 30' after administration, mean results from several experiments, read-out: Blood levels of clavulanic acid
  concentration at 0.5 h: 2300 ng/mL
[2]; blood, mice, clavulanic acid alone at 20 mg/kg, 45' after administration, mean results from several experiments
  concentration at 0.75 h: 1040 ng/mL
[2]; blood, mice, clavulanic acid alone at 20 mg/kg, 60' after administration, mean results from several experiments, read-out: Blood levels of clavulanic acid
  concentration at 1 h: 530 ng/mL
[2]; blood, mice, clavulanic acid alone at 20 mg/kg, 90' after administration, mean results from several experiments
  concentration at 1.5 h: 340 ng/mL
[2]; blood, mice, clavulanic acid alone at 20 mg/kg, 120' after administration, mean results from several experiments, read-out: Blood levels of clavulanic acid
  concentration at 2 h: ≤ 300 ng/mL

## COC/C=C1\O[C@@H]2CC(=O)N2[C@H]1C(=O)O [Clavulanic acid methyl ether]
[2]; in vivo, 20 mg/kg
  concentration at 0.25 h: 7500 ng/mL
  concentration at 0.5 h: 3850 ng/mL
  concentration at 1 h: 1500 ng/mL
  concentration at 2 h: 200 ng/mL
[2]; in vivo, 20 mg/kg, 1.5 h
  Blood levels of clavulanic acid methyl ether: 450 ng/mL
